Where a SMILES comes first, the peptide text is derived from it.

The target in the test is T1, Glutathionylspermidine synthase (Crithidia fasciculata, UniProt P90518).
T1 sequence (P90518 whole entry): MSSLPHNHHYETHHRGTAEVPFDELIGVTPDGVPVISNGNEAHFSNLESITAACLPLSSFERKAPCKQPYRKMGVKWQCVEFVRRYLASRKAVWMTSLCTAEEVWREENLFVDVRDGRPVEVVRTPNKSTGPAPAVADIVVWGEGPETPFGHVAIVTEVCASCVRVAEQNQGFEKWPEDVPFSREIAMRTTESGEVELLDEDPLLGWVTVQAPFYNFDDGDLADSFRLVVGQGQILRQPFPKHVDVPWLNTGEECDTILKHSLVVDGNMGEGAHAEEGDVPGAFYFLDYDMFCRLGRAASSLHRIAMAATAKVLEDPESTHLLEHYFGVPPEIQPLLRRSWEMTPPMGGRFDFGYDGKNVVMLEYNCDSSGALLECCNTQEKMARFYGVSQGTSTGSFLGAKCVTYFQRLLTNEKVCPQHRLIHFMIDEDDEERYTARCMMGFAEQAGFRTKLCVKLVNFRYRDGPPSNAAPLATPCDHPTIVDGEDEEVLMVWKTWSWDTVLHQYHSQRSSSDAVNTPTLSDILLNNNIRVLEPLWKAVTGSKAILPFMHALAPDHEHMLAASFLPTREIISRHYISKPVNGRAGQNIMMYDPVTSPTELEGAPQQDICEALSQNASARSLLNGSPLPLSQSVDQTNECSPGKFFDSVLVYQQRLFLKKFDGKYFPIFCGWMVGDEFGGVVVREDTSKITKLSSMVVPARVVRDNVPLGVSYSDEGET
In words: Inhibitory activity against amidase free Glutathionylspermidine Synthetase mutant (C79A).

With `CC(C)C[C@H](NC(=O)CC[C@H](N)C(=O)O)C(=O)NCC(N)=O` [2-Amino-4-[1-(carbamoylmethyl-carbamoyl)-3-methyl-butylcarbamoyl]-butyric acid] (HELM PEPTIDE1{[gGlu].L.G.[am]}$$$$V2.0), the IC50 (in general, the concentration at which inhibition is half-maximal) is > 2 µM.

The record behind these values is BindingDB's records for doi:10.1016/s0960-894x(02)00489-4 (University of Antwerp (Uia), 2002).
